In the supplement of paper PMC11061612:

Key:
A2058 (Melanoma) = assay: Bliss excess, mean over the matrix (fraction); higher = more synergy
Summary of the method: (§1)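 After 24 hours at 37°C and 5% CO2 in 1536-well plates, cells in DMEM/F12 or RPMI plus 10% FBS received two-drug dose matrices for 72 hours. Viability came from CellTiter-Glo 2.0 luminescence and was scaled as inhibition, anchored at 0 by vehicle wells and at 1 by blank wells. Combination Emax is taken as the second-highest inhibition in the matrix, and Bliss excess as the observed combination effect less EA + EB − EA·EB, with EA and EB the single-agent effects.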

[1] = tested on: CAL-120 (Breast Carcinoma); assay: as above
Summary of the method: as §1

[2] = tested on: LB996-RCC (Kidney Carcinoma); assay: as above
Summary of the method: as §1

[3] = tested on: COLO-680N (Esophageal Squamous Cell Carcinoma); assay: combination Emax (second highest fraction inhibited in the dose matrix, 72 h); higher = more inhibition; extreme values may be limits of the assay
Summary of the method: as §1

[4] = tested on: FADU (Head and Neck Carcinoma); assay: as above
Summary of the method: as §1

GB-1 (Glioblastoma) = assay: as above
Summary of the method: as §1

IST-MES1 (Mesothelioma) = assay: as above
Summary of the method: as §1

[5] = tested on: MFE-280 (Endometrial Carcinoma); assay: as above
Summary of the method: as §1

[6] = tested on: NCI-H23 (Lung Adenocarcinoma); assay: as above
Summary of the method: as §1

[7] = tested on: NCI-H2342 (Lung Adenocarcinoma); assay: as above
Summary of the method: as §1

[8] = tested on: NCI-H446 (Small Cell Lung Carcinoma); assay: as above
Summary of the method: as §1

[9] = tested on: OPM-2 (Plasma Cell Myeloma); assay: as above
Summary of the method: as §1

[10] = tested on: PANC-03-27 (Pancreatic Carcinoma); assay: as above
Summary of the method: as §1

[11] = tested on: PC-3_[JPC-3] (Lung Adenocarcinoma); assay: as above
Summary of the method: as §1

[12] = tested on: PSN1 (Pancreatic Carcinoma); assay: as above
Summary of the method: as §1

[13] = tested on: REH (B-Lymphoblastic Leukemia); assay: as above
Summary of the method: as §1

[14] = tested on: RERF-LC-Sq1 (Squamous Cell Lung Carcinoma); assay: as above
Summary of the method: as §1

[15] = tested on: SHP-77 (Small Cell Lung Carcinoma); assay: as above
Summary of the method: as §1

[16] = tested on: SU-DHL-10 (B-Cell Non-Hodgkin's Lymphoma); assay: as above
Summary of the method: as §1

WM278 (Melanoma) = assay: as above
Summary of the method: as §1
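Wherever Bliss excess, mean over the matrix is given: after 72 h of two-drug dosing.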

SMILES	Bliss excess (A2058 (Melanoma))	Bliss excess [1]	Bliss excess [2]	combination Emax [3]	combination Emax [4]	combination Emax (GB-1 (Glioblastoma))	combination Emax (IST-MES1 (Mesothelioma))	combination Emax [5]	combination Emax [6]	combination Emax [7]	combination Emax [8]	combination Emax [9]	combination Emax [10]	combination Emax [11]	combination Emax [12]	combination Emax [13]	combination Emax [14]	combination Emax [15]	combination Emax [16]	combination Emax (WM278 (Melanoma))
COc1cc2ncnc(Nc3ccc(F)c(Cl)c3)c2cc1OCCCN1CCOCC1 [Gefitinib] + CC(C)n1c(=O)n(C)c2cnc3cc(F)c(-c4ccc(OCCCN5CCCCC5)nc4)cc3c21 [AZD1390] (first compound max 10 µM, 7x7, partner max 0.3 µM)	-0.0343	-0.0446	-0.0069	0.213	0.471	0.0404	0.17	0.246	0.107	0.0812	0.314	0.203	0.373	0.67	0.102	0.145	0.543	0.0777	0.723	0.0959
CS(=O)(=O)CCNCc1ccc(-c2ccc3ncnc(Nc4ccc(OCc5cccc(F)c5)c(Cl)c4)c3c2)o1 [Lapatinib] + C[C@@H](Oc1cc(-c2cnn(C3CCNCC3)c2)cnc1N)c1c(Cl)ccc(F)c1Cl [Crizotinib] (first compound max 10 µM, 7x7, partner max 10 µM)	-0.0237	0.0084	-0.0196	0.483	0.931	0.843	0.686	0.88	0.645	0.43	0.965	0.944	0.835	0.922	0.806	0.964	0.949	0.817	1	0.768
CC(=O)c1c(C)c2cnc(Nc3ccc(N4CCNCC4)cn3)nc2n(C2CCCC2)c1=O [Palbociclib] + CC1(C)CCC(CN2CCN(c3ccc(C(=O)NS(=O)(=O)c4ccc(NCC5CCOCC5)c([N+](=O)[O-])c4)c(Oc4cnc5[nH]ccc5c4)c3)CC2)=C(c2ccc(Cl)cc2)C1 [Venetoclax] (first compound max 10 µM, 7x7, partner max 1 µM)	-0.0231	-0.0523	0.0044	0.0584	0.17	0.15	0.253	0.0835	0.168	0.0497	0.462	0.38	0.131	0.176	0.437	0.825	0.436	0.671	1	0.185
CC(=O)c1c(C)c2cnc(Nc3ccc(N4CCNCC4)cn3)nc2n(C2CCCC2)c1=O [Palbociclib] + Cc1c2c(nn1C)CSCc1cc(n(C)n1)CSc1cc(c3ccccc3c1)OCCCc1c(C(=O)O)n(C)c3c-2c(Cl)ccc13 [AZD5991] (first compound max 10 µM, 7x7, partner max 1 µM)	0.0085	-0.0209	-0.0238	0.237	0.888	0.238	0.344	0.227	0.934	0.348	0.556	1	0.202	0.241	0.564	0.835	0.594	0.646	1	0.156
CC(=O)c1c(C)c2cnc(Nc3ccc(N4CCNCC4)cn3)nc2n(C2CCCC2)c1=O [Palbociclib] + Cn1cnc2c(F)c(Nc3ccc(Br)cc3Cl)c(C(=O)NOCCO)cc21 [Selumetinib] (first compound max 10 µM, 7x7, partner max 10 µM)	0.0131	-0.0361	-0.0426	0.193	0.412	0.275	0.334	0.199	0.387	0.107	0.567	0.448	0.414	0.29	0.702	0.448	0.512	0.527	0.997	0.574
COc1cccc(OCCCN)c1-c1cc(Nc2cnc(C#N)cn2)n[nH]1 [Prexasertib] + C=CCn1c(=O)c2cnc(Nc3ccc(N4CCN(C)CC4)cc3)nc2n1-c1cccc(C(C)(C)O)n1 [AZD1775] (first compound max 1 µM, partner max 1 µM)	0.0994	0.0551	0.0427	0.505	0.914	0.651	0.609	0.739	0.918	0.415	0.995	0.967	0.925	0.588	0.781	1	0.906	0.949	1	0.605
COc1cccc(OCCCN)c1-c1cc(Nc2cnc(C#N)cn2)n[nH]1 [Prexasertib] + CCc1c2c(nc3ccc(O)cc13)-c1cc3c(c(=O)n1C2)COC(=O)[C@]3(O)CC [SN-38] (first compound max 1 µM, 7x7, partner max 0.3 µM)	0.123	0.0574	-0.0334	0.685	0.998	0.836	0.836	0.936	0.948	0.283	1	0.972	0.954	0.802	0.931	1	0.824	0.988	1	0.695
